Experiment [1] addresses T1, Muscarinic acetylcholine receptor M2 (Rattus norvegicus, UniProt P10980).
T1 sequence (P10980 whole entry): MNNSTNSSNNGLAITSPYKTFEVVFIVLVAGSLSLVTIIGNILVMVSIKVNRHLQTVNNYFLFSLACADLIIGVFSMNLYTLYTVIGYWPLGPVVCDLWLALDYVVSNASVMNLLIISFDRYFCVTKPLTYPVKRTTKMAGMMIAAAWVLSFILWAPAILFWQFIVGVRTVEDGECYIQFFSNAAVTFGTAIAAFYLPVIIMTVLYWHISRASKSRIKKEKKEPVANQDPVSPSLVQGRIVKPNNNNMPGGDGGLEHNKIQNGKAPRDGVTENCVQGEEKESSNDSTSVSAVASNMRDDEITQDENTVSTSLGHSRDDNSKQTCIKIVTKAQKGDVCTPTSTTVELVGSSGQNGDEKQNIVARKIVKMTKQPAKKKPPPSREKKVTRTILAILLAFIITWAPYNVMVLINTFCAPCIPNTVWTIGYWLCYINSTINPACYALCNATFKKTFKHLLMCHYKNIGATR
Description: Inhibition of [3H]N-methylscopolamine to rat muscarinic acetylcholine receptor M2 from heart tissue

Experiment [2] is filed under the species Rattus norvegicus. Nature of the experiment: Ratio of IC50 (muscarinic acetylcholine receptor M2) to IC50 (muscarinic acetylcholine receptor M1).
In experiment [3] the target is Cholinesterases; ACHE & BCHE (Homo sapiens) (UniProt P06276+P22303). Description: Ratio of IC50(BChE-I) to IC50(AChE-I). It is filed as protein assay.
Experiment [4] concerns the target Cholinesterase (Homo sapiens, UniProt P06276).
Description: In vitro inhibition of human butryl cholinesterase.
Experiment [5] has as its target T2, Muscarinic acetylcholine receptor M1 (Mus musculus, UniProt P12657).
T2 sequence (P12657 whole entry): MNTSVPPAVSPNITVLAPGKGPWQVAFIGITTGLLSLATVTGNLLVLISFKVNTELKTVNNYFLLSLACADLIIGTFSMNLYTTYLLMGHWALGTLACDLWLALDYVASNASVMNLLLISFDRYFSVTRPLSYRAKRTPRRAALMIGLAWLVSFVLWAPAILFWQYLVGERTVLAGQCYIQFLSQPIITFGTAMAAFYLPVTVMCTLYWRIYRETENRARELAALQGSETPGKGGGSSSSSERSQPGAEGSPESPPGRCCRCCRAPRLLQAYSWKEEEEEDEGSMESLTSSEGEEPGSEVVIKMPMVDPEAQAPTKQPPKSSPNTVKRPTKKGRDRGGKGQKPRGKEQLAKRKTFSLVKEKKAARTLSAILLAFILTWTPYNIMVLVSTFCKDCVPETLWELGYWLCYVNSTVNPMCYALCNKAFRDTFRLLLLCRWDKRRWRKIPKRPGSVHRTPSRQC
Nature of the experiment: biochemical.
Description: Inhibition of [3H]pirenzepine binding to mouse muscarinic acetylcholine receptor M1 from cerebral cortex

The species entered for experiment [6] is Rattus norvegicus. Nature of the experiment: Concentration required to potentiate the contraction of isolated rat ileum produced by 1 x 10 e -7 M Ach by 20 %; inactive. It is filed as functional.
The target of experiment [7] is T3, Acetylcholinesterase (Homo sapiens, UniProt P22303).
Description: In vitro inhibition of human acetylcholinesterase.
Experiment [8] is filed under the species Rattus norvegicus.
The test system of experiment [9] is Mus musculus. Nature of the experiment: Effect on brain acetylcholine concentration in mice after intraperitoneal administration of 80% lethal dose (170 mg/kg). It is filed as functional.
Experiment [10] has as its system Mus musculus. Nature of the experiment: Effect on brain acetylcholine concentration in mice after intraperitoneal administration of 60% lethal dose (102 mg/kg). It is filed as functional.
Experiment [11] deals with T4, Muscarinic acetylcholine receptor M2 (Mus musculus, UniProt Q9ERZ4).
T4 sequence (Q9ERZ4 whole entry): T1 sequence (P10980 whole entry) with V270G, R316K, K321R, A331T, V336A
Description: biochemical.
Description: Ability to displace [3H]methylscopolamine ([3H]NMS) from mouse cerebral cortex

In experiment [12] the test system is Mus musculus. Description: Effect on brain acetylcholine concentration in mice after intraperitoneal administration of 40% lethal dose (68 mg/kg. It is filed as functional.
Experiment [13] addresses T4, Muscarinic acetylcholine receptor M2. Nature of the experiment: biochemical. The source holds these as a separate data set.
For experiment [14], the target named is T3, Acetylcholinesterase. Description: In vitro acetyl cholinesterase (AChE-I) inhibitory activity to determine its ability to reverse the cholinergic deficit characteristic of AD.
The target of experiment [15] is T1, Muscarinic acetylcholine receptor M2. Description: Binding affinity against rat muscarinic acetylcholine receptor M2 using heart tissue and [3H]N-methylscopolamine.
The subject of experiment [16] is Mus musculus. Nature of the experiment: Effect on brain acetylcholine concentration in mice after intraperitoneal administration of 80% lethal dose (80 mg/kg)(***: p <= 0.001). It is filed as functional.
Experiment [17] has as its system Mus musculus. Description: Effect on brain acetylcholine concentration in mice after intraperitoneal administration of 60% lethal dose (66 mg/kg). It is filed as functional.

From ChEMBL document CHEMBL1125532, “Synthesis and cholinergic properties of N-aryl-2-[[[5-[(dimethylamino)methyl]-2-furanyl]methyl]thio]ethylamino analogs of ranitidine” (J Med Chem, 1992) come the findings set out here.

Residue numbers refer to the chain shown, from its start. Calls of active or inactive are those of the source. No cut-off for these calls is given here.

Chain of Cholinesterases; ACHE & BCHE (Homo sapiens) (P06276 whole entry, looked up): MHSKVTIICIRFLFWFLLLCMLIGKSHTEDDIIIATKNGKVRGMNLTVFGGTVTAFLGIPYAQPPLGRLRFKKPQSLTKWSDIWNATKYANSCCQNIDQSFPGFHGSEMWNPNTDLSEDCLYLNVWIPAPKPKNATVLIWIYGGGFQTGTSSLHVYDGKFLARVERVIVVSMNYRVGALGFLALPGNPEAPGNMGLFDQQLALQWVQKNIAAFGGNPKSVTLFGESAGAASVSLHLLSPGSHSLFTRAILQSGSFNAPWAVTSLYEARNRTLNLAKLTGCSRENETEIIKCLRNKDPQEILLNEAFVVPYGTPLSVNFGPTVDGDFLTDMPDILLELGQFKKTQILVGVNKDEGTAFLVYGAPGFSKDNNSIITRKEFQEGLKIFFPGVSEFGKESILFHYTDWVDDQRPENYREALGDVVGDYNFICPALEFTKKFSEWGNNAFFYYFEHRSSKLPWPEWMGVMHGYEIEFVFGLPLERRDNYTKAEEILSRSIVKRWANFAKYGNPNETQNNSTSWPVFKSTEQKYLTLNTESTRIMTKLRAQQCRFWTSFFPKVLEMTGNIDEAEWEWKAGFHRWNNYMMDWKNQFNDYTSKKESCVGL
Chain of Cholinesterases; ACHE & BCHE (Homo sapiens) (P22303 whole entry, looked up): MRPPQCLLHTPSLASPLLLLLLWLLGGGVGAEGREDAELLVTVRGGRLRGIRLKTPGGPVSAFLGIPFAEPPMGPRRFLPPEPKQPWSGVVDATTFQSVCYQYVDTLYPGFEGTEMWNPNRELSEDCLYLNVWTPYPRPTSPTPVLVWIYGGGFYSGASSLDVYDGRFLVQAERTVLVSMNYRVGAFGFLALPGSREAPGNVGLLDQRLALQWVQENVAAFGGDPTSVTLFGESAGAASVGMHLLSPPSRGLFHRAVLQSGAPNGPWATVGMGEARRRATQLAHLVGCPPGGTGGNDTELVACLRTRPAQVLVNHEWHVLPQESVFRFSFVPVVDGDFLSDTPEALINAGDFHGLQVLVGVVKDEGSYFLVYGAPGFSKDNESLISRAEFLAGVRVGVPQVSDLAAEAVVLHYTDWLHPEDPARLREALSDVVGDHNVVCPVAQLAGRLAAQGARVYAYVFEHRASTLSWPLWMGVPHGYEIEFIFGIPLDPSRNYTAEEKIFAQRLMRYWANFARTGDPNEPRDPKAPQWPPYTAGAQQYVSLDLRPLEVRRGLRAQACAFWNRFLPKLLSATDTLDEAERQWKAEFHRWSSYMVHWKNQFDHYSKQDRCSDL
Chain of Cholinesterase (P06276 whole entry): as the sequence (P06276 whole entry, looked up) above
T3 sequence (P22303 whole entry): as the sequence (P22303 whole entry, looked up) above

The term IC50 denotes the point on the concentration scale where inhibition reaches its midpoint. Higher therefore signals weaker potency. With `CN(C)Cc1ccc(CSCCNc2cc(NCc3cccnc3)c([N+](=O)[O-])cc2[N+](=O)[O-])o1`, the IC50 in experiment [1] was 400 nM; in experiment [4] it was 6100 nM; in experiment [5] it was 380 nM; in experiment [7] it was 310 nM. Also, the Ratio in [2] was 1.1; in experiment [3], 19. For the same compound, in [6], the Ileal activity entry is “inactive”.

Turning to `CN(C)Cc1ccc(CSCCNc2cc(F)c([N+](=O)[O-])cc2[N+](=O)[O-])o1`, the IC50 in experiment [1] was found to be 7000 nM; in experiment [4], 3800 nM; in experiment [5], 1800 nM; in experiment [7], 120 nM. For the same compound, the Ratio in experiment [2] was determined as 3.9; in experiment [3] it was 33. Also, the Ileal activity in experiment [8] was less than 0.01 µM.

By Ki is commonly meant a measure of affinity in units of concentration, obtained from inhibition or displacement. Low readings indicate tighter binding, high ones weaker binding. For `CN(C)Cc1ccc(CSCCNc2cc(NN)c([N+](=O)[O-])cc2[N+](=O)[O-])o1`, the half-maximal inhibitory concentration (IC50) was 4700 nM in experiment [1], 5100 nM in experiment [4], 3800 nM in experiment [5] and 76 nM in experiment [7]. In addition, the Ratio in experiment [2] was 1.2; in [3], 67. Further, the “% of control” value in [9] was found to be 126.8%; in [10], 128.8%; in experiment [12], 110%. Further, the Ki in experiment [11] is 12000 nM; in experiment [13] it was 1100 nM. Moreover, the Ileal activity in experiment [8] was less than 0.1 µM.

`CN(C)Cc1ccc(CSCCNc2cccc(F)c2C#N)o1` yielded an IC50 in [14] of 2100 nM.

`CN(C)Cc1ccc(CSCCNc2cc(Nc3ncccc3[N+](=O)[O-])c([N+](=O)[O-])cc2[N+](=O)[O-])o1`: the results for the 50% inhibitory concentration (IC50) in [4] and in experiment [7] were 18000 nM and 650 nM, respectively.

Take `CN(C)Cc1ccc(CSCCNc2cc(Nc3ccc(F)cc3)c([N+](=O)[O-])cc2[N+](=O)[O-])o1`: the IC50 in experiment [1] worked out at 4400 nM; in experiment [4], 1100 nM; in [5], 2100 nM; in experiment [7], 680 nM. Besides, the Ratio came to 2.1 in experiment [2] and 1.6 in experiment [3]. Further, the Ileal activity in experiment [8] was less than 0.01 µM.

As to `CN(C)CCNc1cc(NCCSCc2ccc(CN(C)C)o2)c([N+](=O)[O-])cc1[N+](=O)[O-]`, the concentration for half-maximal inhibition (IC50) in experiment [1] came out at 380 nM; in experiment [4], 1400 nM; in [5] it was 670 nM; in [7], 520 nM. For the same compound, the Ratio in experiment [2] came out at 0.57; in experiment [3], 2.8. The same compound returned an Ileal activity in experiment [8] of less than 0.01 µM.

On to `CN(C)Cc1ccc(CSCCNc2cc(Nc3ccccc3)c([N+](=O)[O-])cc2[N+](=O)[O-])o1`, for which the IC50 is 6400 nM in experiment [1], 1600 nM in experiment [4], 6400 nM in [5] and 640 nM in experiment [7]. Further, the figures for the Ratio in experiment [2] and in experiment [3] were 1 and 2.5, respectively. Also, the Ileal activity result in [6] is “inactive”.

`CN(C)Cc1ccc(CSCCNc2cc(Nc3ccccc3C#N)c([N+](=O)[O-])cc2[N+](=O)[O-])o1`: the IC50 in experiment [1] is 3700 nM; in experiment [4], 1800 nM; in [5] it was 3300 nM; in experiment [7] it was 630 nM. For the same compound, the Ratio in [2] came out at 1.1; in experiment [3], 2.8. Further, the Ileal activity entry in [6] was “inactive”.

In the case of `CN(C)Cc1ccc(CSCCNc2cc(NCc3ccccn3)c([N+](=O)[O-])cc2[N+](=O)[O-])o1`, the IC50 is 2400 nM in [1], 5200 nM in experiment [4], 1500 nM in experiment [5] and 1300 nM in experiment [7]. The Ratio in experiment [2] is 1.6; in experiment [3] it was 4.1. This compound also yielded an Ileal activity in experiment [8] of less than 1 µM.

`CCCCCNc1cc(NCCSCc2ccc(CN(C)C)o2)c([N+](=O)[O-])cc1[N+](=O)[O-]` gave a 50% inhibitory concentration (IC50) in experiment [7] of 1200 nM.

For the compound `CN(C)Cc1ccc(CSCCNc2ccc(F)cc2[N+](=O)[O-])o1`, the IC50 came out at 2400 nM in [1], 3300 nM in experiment [4], 4000 nM in [5] and 650 nM in experiment [7]. Moreover, the figures for the Ratio in experiment [2] and in experiment [3] were 0.6 and 5.1, respectively. In [6], the Ileal activity result was “inactive”.

For the compound `CN(C)Cc1ccc(CSCCNc2cc(NCc3ccccc3)c([N+](=O)[O-])cc2[N+](=O)[O-])o1`, the IC50 in [1] was found to be 3300 nM; in experiment [5] it was 2000 nM. Moreover, the Ratio in [2] stood at 1.7. Moreover, in experiment [6], the Ileal activity entry is “inactive”.

`CN(C)Cc1ccc(CSCCNc2cc(Oc3ccc([N+](=O)[O-])cc3)c([N+](=O)[O-])cc2[N+](=O)[O-])o1`: the half-maximal inhibitory concentration (IC50) in experiment [4] was 1100 nM; in [7], 270 nM.

Take `CNc1cc(NCCSCc2ccc(CN(C)C)o2)c([N+](=O)[O-])cc1[N+](=O)[O-]`: the results for the Ratio in [2] and in experiment [3] were 7.2 and 21, respectively. In addition, the concentration for half-maximal inhibition (IC50) in experiment [4] came to 3300 nM; in [5] it was 430 nM; in experiment [7], 160 nM; in experiment [15], 3100 nM. For the same compound, the Ileal activity result in experiment [6] is “inactive”.

Turning to `CC(C)=NNc1cc(NCCSCc2ccc(CN(C)C)o2)c([N+](=O)[O-])cc1[N+](=O)[O-]`, the IC50 in [1] came to 3500 nM; in experiment [4] it was 8400 nM; in experiment [5] it was 3100 nM; in experiment [7] it was 440 nM. Moreover, the Ratio in experiment [2] came to 1.1; in experiment [3] it was 19. The compound also showed an Ileal activity in [8] of less than 0.1 µM.

Consider `CN(C)Cc1ccc(CSCCNc2cc(N)c([N+](=O)[O-])cc2[N+](=O)[O-])o1`, for which the Ratio in experiment [2] is 1.8; in experiment [3], 28. For the same compound, the half-inhibitory concentration (IC50) in [4] was 2400 nM; in experiment [5], 3800 nM; in experiment [7] it was 83 nM; in [15], 6800 nM. The values for the Ki in experiment [11] and in experiment [13] were 9500 nM and 460 nM, respectively. The results for the “% of control” value in [16] and in experiment [17] were 153.2% and 126.8%, respectively. In [8], this compound gave an Ileal activity of less than 0.1 µM.

With `CNC(=O)Oc1ccc2c(c1)[C@]1(C)CCN(C)[C@@H]1N2C` [PHYSOSTIGMINE], the IC50 in experiment [1] turned out to be 160000 nM. This compound also showed an Ileal activity in experiment [8] of less than 0.005 µM.

As to `O=C1CCCN1CC#CCN1CCCC1` [OXOTREMORINE], the Ki in [11] stood at 1500 nM; in experiment [13] it was 1.7 nM.

For the compound `CCCNc1cc(NCCSCc2ccc(CN(C)C)o2)c([N+](=O)[O-])cc1[N+](=O)[O-]`, the Ratio in experiment [2] was 1.1; in [3], 15. Besides, the IC50 in [4] amounted to 3800 nM; in experiment [5], 3200 nM; in experiment [7], 260 nM; in experiment [15], 3500 nM. Besides, the Ileal activity in experiment [8] was less than 1 µM.

For the compound `CN(C)Cc1ccc(CSCCNc2cc(NCCCN3CCOCC3)c([N+](=O)[O-])cc2[N+](=O)[O-])o1`, the half-maximal inhibitory concentration (IC50) in experiment [1] was found to be 300 nM; in experiment [4], 4700 nM; in experiment [5] it was 530 nM; in experiment [7], 370 nM. Besides, the Ratio in experiment [2] came out at 0.57; in experiment [3], 13. The compound also had an Ileal activity in experiment [8] of less than 0.1 µM.
